The results in this text go back to US20260285872A1, “COMPOUNDS AND METHODS FOR DEGRADING GSPT1” (priority 2023, published 2026).

The subject of this experiment is NCI-H1155 cells. In words: NSCLC cell viability, CellTiter-Glo, NCI-H1155 cells. The class given is cell-based. The settings on record: Homo sapiens; NCI-H1155 cells, CellTiter-Glo, 72 hours of treatment; read-out: Cell viability classification (NCI-H1155). A general note: ATP-based viability assays read luminescence as a measure of living cells.
As to `O=C1CCC(N2Cc3cc(C(=O)N4CC5(CC5)c5ccc(F)cc54)ccc3C2=O)C(=O)N1` (centres unmarked) [Example 105, 3-(5-(6′-fluorospiro[cyclopropane-1,3′-indoline]-1′-carbonyl)-1-oxoisoindolin-2-yl)piperidine-2,6-dione], the IC50 was less than 0.01 µM.
On to `C[C@H]1CN(C(=O)c2ccc3c(c2)CN(C2CCC(=O)NC2=O)C3=O)c2cc(F)ccc21` (stereo partly drawn) [Example 132, 3-(5-((R)-6-fluoro-3-methylindoline-1-carbonyl)-1-oxoisoindolin-2-yl)piperidine-2,6-dione], for which the IC50 is less than 0.01 µM.
In the case of `Cc1c(N2CCC(=O)NC2=O)ccc2ccc(C(=O)N3CCc4ccc(F)cc43)cc12` [Example 134, 1-(7-(6-fluoroindoline-1-carbonyl)-1-methylnaphthalen-2-yl)dihydropyrimidine-2,4(1H,3H)-dione], the IC50 was in the range of 0.01 to 0.1 µM.
For `C[C@@H]1c2c(F)cccc2CN1C(=O)c1ccc2c(c1)CN(C1CCC(=O)NC1=O)C2=O` (stereo partly drawn) [Example 139, 3-(5-((R)-7-fluoro-1-methylisoindoline-2-carbonyl)-1-oxoisoindolin-2-yl)piperidine-2,6-dione] the value was 0.01 to 0.1 µM; for `C[C@H]1c2c(F)cccc2CN1C(=O)c1ccc2c(c1)CN(C1CCC(=O)NC1=O)C2=O` (stereo partly drawn) [Example 140, 3-(5-((S)-7-fluoro-1-methylisoindoline-2-carbonyl)-1-oxoisoindolin-2-yl)piperidine-2,6-dione], greater than 1 µM.
For `C[C@H]1c2cccc(F)c2CN1C(=O)c1ccc2c(c1)CN(C1CCC(=O)NC1=O)C2=O` (stereo partly drawn) [Example 141, 3-(5-((S)-4-fluoro-1-methylisoindoline-2-carbonyl)-1-oxoisoindolin-2-yl)piperidine-2,6-dione] the value was 0.1 to 1 µM.
For `C[C@@H]1c2cccc(F)c2CN1C(=O)c1ccc2c(c1)CN(C1CCC(=O)NC1=O)C2=O` (stereo partly drawn) [Example 142, 3-(5-((R)-4-fluoro-1-methylisoindoline-2-carbonyl)-1-oxoisoindolin-2-yl)piperidine-2,6-dione] the value was greater than 1 µM; for `O=C1CCN(c2ccc3cc(COC(=O)Nc4cc(OC(F)(F)F)ccc4F)ccc3c2)C(=O)N1` [Example 143, (6-(2,4-dioxotetrahydropyrimidin-1(2H)-yl)naphthalen-2-yl)methyl(2-fluoro-5-(trifluoromethoxy)phenyl)carbamate], 0.1 to 1 µM.
In the case of `O=C1CCC(N2Cc3cc(C(=O)N4Cc5ccc(F)c(Cl)c5C4)ccc3C2=O)C(=O)N1` (centres unmarked) [Example 144, 3-(5-(4-chloro-5-fluoroisoindoline-2-carbonyl)-1-oxoisoindolin-2-yl)piperidine-2,6-dione], the IC50 was in the range of 0.01 to 0.1 µM.
With `O=C1CCC(c2nc3ccc(C(=O)N4CCc5ccccc5C4)cc3o2)C(=O)N1` (centres unmarked) [Example 146, 3-(6-(1,2,3,4-tetrahydroisoquinoline-2-carbonyl)benzo[d]oxazol-2-yl)piperidine-2,6-dione] the figure was 0.1 to 1 µM; with `O=C1CCC(N2Cc3cc(C(=O)N4Cc5cc(Cl)cc(F)c5C4)ccc3C2=O)C(=O)N1` (centres unmarked) [Example 148, 3-(5-(6-chloro-4-fluoroisoindoline-2-carbonyl)-1-oxoisoindolin-2-yl)piperidine-2,6-dione], 0.01 to 0.1 µM.
Consider `Cc1ccc2c(c1F)CN(C(=O)c1ccc3c(c1)CN(C1CCC(=O)NC1=O)C3=O)C2` (centres unmarked) [Example 149, 3-(5-(4-fluoro-5-methylisoindoline-2-carbonyl)-1-oxoisoindolin-2-yl)piperidine-2,6-dione], for which the IC50 lay within 0.01 to 0.1 µM.
With `N#Cc1ccc2c(c1F)CN(C(=O)c1ccc3c(c1)CN(C1CCC(=O)NC1=O)C3=O)C2` (centres unmarked) [Example 150, 2-(2-(2,6-dioxopiperidin-3-yl)-1-oxoisoindoline-5-carbonyl)-4-fluoroisoindoline-5-carbonitrile] the figure was 0.1 to 1 µM.
Take `O=C1CCC(N2Cc3cc(C(=O)N4Cc5cccc(OC(F)(F)F)c5C4)ccc3C2=O)C(=O)N1` (centres unmarked) [Example 151, 3-(1-oxo-5-(4-(trifluoromethoxy)isoindoline-2-carbonyl)isoindolin-2-yl)piperidine-2,6-dione]: the IC50 is 0.01 to 0.1 µM.
On to `O=C1CCC(N2Cc3cc(C(=O)N4Cc5cc(F)cc(Cl)c5C4)ccc3C2=O)C(=O)N1` (centres unmarked) [Example 152, 3-(5-(4-chloro-6-fluoroisoindoline-2-carbonyl)-1-oxoisoindolin-2-yl)piperidine-2,6-dione], for which the IC50 is 0.01 to 0.1 µM.
For the molecule `O=C1CCC(c2nc3ccc(C(=O)N4Cc5cccc(OC(F)(F)F)c5C4)cc3o2)C(=O)N1` (centres unmarked) [Example 153, 3-(6-(4-(trifluoromethoxy)isoindoline-2-carbonyl)benzo[d]oxazol-2-yl)piperidine-2,6-dione], the IC50 was greater than 1 µM.
For `O=C1CCC(N2Cc3cc(C(=O)N4CC5(CNC5)c5ccc(F)cc54)ccc3C2=O)C(=O)N1` (centres unmarked) [Example 154, 3-(5-(6′-fluorospiro[azetidine-3,3′-indoline]-1′-carbonyl)-1-oxoisoindolin-2-yl)piperidine-2,6-dione] the value was greater than 1 µM; for `Cc1cc(F)c2c(c1)CN(C(=O)c1ccc3c(c1)CN(C1CCC(=O)NC1=O)C3=O)C2` (centres unmarked) [Example 155, 3-(5-(4-fluoro-6-methylisoindoline-2-carbonyl)-1-oxoisoindolin-2-yl)piperidine-2,6-dione], less than 0.01 µM; for `N#Cc1cc(F)c2c(c1)CN(C(=O)c1ccc3c(c1)CN(C1CCC(=O)NC1=O)C3=O)C2` (centres unmarked) [Example 156, 2-(2-(2,6-dioxopiperidin-3-yl)-1-oxoisoindoline-5-carbonyl)-7-fluoroisoindoline-5-carbonitrile], 0.01 to 0.1 µM.
For `O=C1CCC(N2Cc3cc(C(=O)N4CC5(CCC(F)(F)CC5)C4)ccc3C2=O)C(=O)N1` (centres unmarked) [Example 157, 3-(5-(7,7-difluoro-2-azaspiro[3.5]nonane-2-carbonyl)-1-oxoisoindolin-2-yl)piperidine-2,6-dione] the value was 0.1 to 1 µM; for `C[C@@H]1c2c(F)cccc2CN1C(=O)c1ccc2nc(C3CCC(=O)NC3=O)oc2c1` (stereo partly drawn) [Example 159, 3-(6-((R)-7-fluoro-1-methylisoindoline-2-carbonyl)benzo[d]oxazol-2-yl)piperidine-2,6-dione], greater than 1 µM.
In the case of `C[C@H]1c2c(F)cccc2CN1C(=O)c1ccc2nc(C3CCC(=O)NC3=O)oc2c1` (stereo partly drawn) [Example 160, 3-(6-((S)-7-fluoro-1-methylisoindoline-2-carbonyl)benzo[d]oxazol-2-yl)piperidine-2,6-dione], the IC50 fell in the range of 0.1 to 1 µM.
With `COc1cccc2c1CN(C(=O)c1ccc3nc(C4CCC(=O)NC4=O)oc3c1)C2` (centres unmarked) [Example 162, 3-(6-(4-methoxyisoindoline-2-carbonyl)benzo[d]oxazol-2-yl)piperidine-2,6-dione], the IC50 was greater than 1 µM.
Take `O=C1CCC(N2Cc3cc(C(=O)N4CC5(CCC(F)(F)C5)C4)ccc3C2=O)C(=O)N1` (centres unmarked) [Example 163, 3-(5-(6,6-difluoro-2-azaspiro[3.4]octane-2-carbonyl)-1-oxoisoindolin-2-yl)piperidine-2,6-dione]: the IC50 lay within 0.1 to 1 µM.
For `O=C1CCC(N2Cc3cc(C(=O)N4CC5(C4)CC(F)(c4ccc(F)cc4)C5)ccc3C2=O)C(=O)N1` (centres unmarked) [Example 168, 3-(5-(6-fluoro-6-(4-fluorophenyl)-2-azaspiro[3.3]heptane-2-carbonyl)-1-oxoisoindolin-2-yl)piperidine-2,6-dione] the value was 0.1 to 1 µM.
As for `O=C1CCC(N2Cc3cc(C(=O)N4CC(F)(c5ccc(F)cc5)C4)ccc3C2=O)C(=O)N1` (centres unmarked) [Example 170, 3-(5-(3-fluoro-3-(4-fluorophenyl)azetidine-1-carbonyl)-1-oxoisoindolin-2-yl)piperidine-2,6-dione], the IC50 is 0.1 to 1 µM.
With `O=C1CCC(c2nc3ccc(C(=O)N4CCc5cc(Cl)ccc5C4)cc3o2)C(=O)N1` (centres unmarked) [Example 171, 3-(6-(6-chloro-1,2,3,4-tetrahydroisoquinoline-2-carbonyl)benzo[d]oxazol-2-yl)piperidine-2,6-dione] the figure was 0.1 to 1 µM; with `O=C1CCC(N2Cc3cc(C(=O)N4Cc5ccc(Cl)c(F)c5C4)ccc3C2=O)C(=O)N1` (centres unmarked) [Example 172, 3-(5-(5-chloro-4-fluoroisoindoline-2-carbonyl)-1-oxoisoindolin-2-yl)piperidine-2,6-dione], 0.01 to 0.1 µM; with `N#Cc1cccc2c1CN(C(=O)c1ccc3nc(C4CCC(=O)NC4=O)oc3c1)C2` (centres unmarked) [Example 173, 2-(2-(2,6-dioxopiperidin-3-yl)benzo[d]oxazole-6-carbonyl)isoindoline-4-carbonitrile], 0.1 to 1 µM.
Consider `O=C1CCC(c2nc3ccc(C(=O)N4CCc5c(F)cc(F)cc54)cc3o2)C(=O)N1` (centres unmarked) [Example 175, 3-(6-(4,6-difluoroindoline-1-carbonyl)benzo[d]oxazol-2-yl)piperidine-2,6-dione], for which the IC50 lay within 0.1 to 1 µM.
As to `O=C1CCC(c2nc3ccc(C(=O)N4Cc5c(F)ccc(F)c5C4)cc3o2)C(=O)N1` (centres unmarked) [Example 177, 3-(6-(4,7-difluoroisoindoline-2-carbonyl)benzo[d]oxazol-2-yl)piperidine-2,6-dione], the IC50 is 0.1 to 1 µM.
On to `O=C1CCC(c2nc3ccc(C(=O)N4CCc5cccc(Cl)c5C4)cc3o2)C(=O)N1` (centres unmarked) [Example 179, 3-(6-(8-chloro-1,2,3,4-tetrahydroisoquinoline-2-carbonyl)benzo[d]oxazol-2-yl)piperidine-2,6-dione], for which the IC50 lay in the range of 0.1 to 1 µM.
Take `O=C1CCC(c2nc3ccc(C(=O)N4CCc5ccc(Cl)cc5C4)cc3o2)C(=O)N1` (centres unmarked) [Example 180, 3-(6-(7-chloro-1,2,3,4-tetrahydroisoquinoline-2-carbonyl)benzo[d]oxazol-2-yl)piperidine-2,6-dione]: the IC50 is greater than 1 µM.
As to `O=C1CCC(c2nc3ccc(C(=O)N4CCc5c(Cl)cccc5C4)cc3o2)C(=O)N1` (centres unmarked) [Example 181, 3-(6-(5-chloro-1,2,3,4-tetrahydroisoquinoline-2-carbonyl)benzo[d]oxazol-2-yl)piperidine-2,6-dione], the IC50 is greater than 1 µM.
Turning to `O=C1CCC(N2Cc3cc(C(=O)N4CC5(CC(C(F)(F)F)C5)C4)c(F)cc3C2=O)C(=O)N1` (centres unmarked) [Example 183, 3-(6-fluoro-1-oxo-5-(6-(trifluoromethyl)-2-azaspiro[3.3]heptane-2-carbonyl)isoindolin-2-yl)piperidine-2,6-dione], the IC50 lay within 0.01 to 0.1 µM.
